Assay results taken from patent US20120004246A1, “PURINYL DERIVATIVES AND THEIR USE AS POTASSIUM CHANNEL MODULATORS” (NeuroSearch A/S, priority 2007, published 2012).

Molecular target: T1, hSK3 channels (Homo sapiens, UniProt Q9UGI6)
T1 construct: expressed in transfected cells; host or cells: HEK293
Assay: whole-cell patch-clamp of SK3 current in HEK293 cells expressing hSK3 channels
Type: cell-based
Conditions: SK3 activation
Experimental: The ionic current through small-conductance Ca^2+-activated K^+ channels (SK channels, subtype 3) is recorded using the whole-cell configuration of the patch-clamp technique in a classic patch-clamp set-up using HEK293 tissue culture cells expressing hSK3 channels as described in e.g. WO 2006/100212.
The SC100 value determined is defined as the Stimulating Concentration required for increasing the baseline current by 100%. The below SC100 values are an indication of the SK3 activating properties of the compounds of the invention.

| Structure (SMILES) | SC100 (Stimulating Concentration required for increasing the baseline current by 100%) [µM] |
| --- | --- |
| CCn1cnc2c(Nc3ccc(Cl)c(Cl)c3)nc(-n3nc(C)cc3C)nc21 [Compound 4.1, (3,4-Dichloro-phenyl)-[2-(3,5-dimethyl-pyrazol-1-yl)-9-ethyl-9H-purin-6-yl]-amine] | 0.04 |
| Cc1cc(C)n(-c2nc(Nc3ccc(F)c(F)c3)c3ncn(C)c3n2)n1 [Compound 6.1, (3,4-Difluoro-phenyl)-(2-(3,5-dimethyl-pyrazol-1-yl)-9-methyl-9H-purin-6-yl)-amine] | 0.02 |
